Measured values taken from patent US20220089616A1, “CARBORANE-BASED HISTONE DEACETYLASE (HDAC) INHIBITORS” (The Regents of the University of California, priority 2018, published 2022).

System: primary mouse NPCs
Assay: TUNEL assay, mouse NPCs
Format: cell-based
Conditions: 40 μM
Experimental: Primary neural progenitor cells (NPCs) were a gift from Dr. Harley Kornblum (University of California Los Angeles). The cells were collected from embryonic day 14 (E14) mouse brain according to procedures approved by the UCLA Chancellor's Committee for Animal Research. The following supplements were added to the Neurobasal media: 1:50 B27, 1:100 Pen-Strep, 2 mM 1-glutamine (all from GIBCO/BRL), 2 μg/ml heparin (Sigma), and 20 ng/ml FGF2 (PeproTech). Cells were incubated at 37° C. in the presence of 5% CO2. Additional FGF2 was added every third day, and cultures were passaged every 7 days. During each passage, spheres were enzymatically and mechanically dissociated with Accumax (Sigma).
Click-iT® Plus TUNEL Assay (Molecular Probes Life Technologies, Catalog #: C10617)
Primary mouse NPCs were passaged and counted as previously described. Cells without treatment were used as a negative control, DNaseI (Cat. no. 18068-015) was used to generate a positive control, and 10 μL of inhibitor solutions were used at varying concentrations. A 24-well plate was prepped with 12 mm circle glass coverslips in the wells. Coverslips were coated with poly-L-lysine followed by laminin prior to plating the cells. […]

CN(Cc1ccc(/C=C/C(=O)NO)cc1)CC12CC3CC(CC(C3)C1)C2 [Martinostat]
toxicity by average cell population count of confocal images (5 positions): higher toxicity
TUNEL positive cells (FIG. 11A): perceived elevation
